Data taken from patent publication US12472213B2, “Strains of Lactobacillus delbrueckii which inhibit Porphyromonas gingivalis” (Trustees of Tufts College, priority 2019, dated 2025).
Read-outs that look alike come from different tables or passages of the source.

Columns and labels:
[1] = system: Lactobacillus delbrueckii STYM1 strain pyruvate oxidase (L. delbrueckii Pox, LDBND_1487), wild type, full-length; test: Phospholipid activation assay of L. delbrueckii Pox; format: biochemical; conditions: various concentrations; 16:0-18:1 acyl chains
Description: (§1) Pyruvate oxidase enzyme or pyruvate:oxygen 2-oxidoreductase (phosphorylating) (EC 1.2.3.3) was derived from Lactobacillus delbrueckii STYM1 strain (16).
Pyruvate oxidase activity was measured as previously described (16). Briefly, 50 mM sodium pyruvate, 15 μM FAD, 300 μM TPP, 0.03% N-ethyl-N-(2-hydroxy-3-sulfopropyl)-m-toluidine (sigma), 0.015% 4-aminoantipyrine (sigma), and 33 μg/mL horseradish peroxidase (Sigma) were combined with purified pox enzyme. After a 10-minute incubation at room temperature, sodium phosphate pH 5.6 was added to 50 mM final concentration to initiate the reaction. The formation of a quinoneimine dye at 25° C. was measured by an increase in absorbance at 550 nm and the specific activity was calculated as described. 1 unit of Pox activity is defined as the production of 1 μmol of hydrogen peroxide per minute and this was converted to μM/min for kinetic analysis.
Phosphotidylethanolamine (16:0-18:1) (Avanti Lipids), Phosphotidylcholine (16:0-18:1) (Avanti Lipids), and Phosphotidylglycerol (16:0-18:1) (Avanti Lipids) dissolved in chloroform were evaporated under a steady stream of argon gas and dried in a vacuum desiccator for 1 hour to evaporate residual chloroform. The phospholipids were resuspended in 20 mM Bis-Tris 150 mM NaCl pH 6 and incubated at 37° C. with shaking at 225 rpm for 30 minutes. The suspension was vortexed for 30 seconds and vortexed immediately prior to each use.
(§2) Phospholipids were added to the pyruvate oxidase assay mixture at various concentrations and enzyme activity was measured as described above. Fold activity was calculated relative to enzyme activity without phospholipid.

[2] = system: Lactobacillus delbrueckii STYM1 strain pyruvate oxidase (L. delbrueckii Pox, LDBND_1487), wild type, C-terminal His6; test: Pyruvate oxidase activity assay and kinetic parameters (oxidative coupling, H2O2 production, A550); format: biochemical; conditions: for Km: 25° C.
Description: The C-terminal primer encoded a glycine-serine linker followed by a 6-histidine tag and a stop codon. The PCR product was ligated into the pFLAG-CTC vector (Sigma) using the NdeI and XhoI restriction sites and transformed into DH5α E. coli resulting in the plasmid pFLAG-CTC_Pox. The construct was confirmed by PCR and sequencing. pFLAG-CTC_Pox was transformed into LOBSTR E. coli in which Pox was expressed as a C-terminal His6-Pox. A 6 mL starter culture was incubate at 37° C. overnight in LB supplemented with 100 μg/mL of ampicillin. The starter culture was diluted 1:100 into 40 mL of LB supplemented with 100 μg/mL of ampicillin and grown at 37° C. until the OD600 reached 0.4-0.8. The temperature was then shifted to 26° C. and the cells were incubated with 1 mM isopropyl-β-D-thiogalactopyranoside (IPTG) for 20 hours. The cells were harvested by centrifugation at 3,200×g for 10 minutes, resuspended in 1 mL PBS EDTA-free cOmplete protease inhibitor cocktail (Roche), and lysed by sonication on ice, as described above. […] Protein purity was assessed by SDS-PAGE and Coomassie staining.
Pyruvate oxidase activity of recombinant Pox was assessed by an oxidative coupling reaction. […] Immediately upon addition of purified Pox, the formation of a quinoneimine dye was measured by an increase in the absorbance at 550 nm which was recorded every 30 seconds at room temperature. […] Pox activity is assessed by determining the change in absorbance at 550 nm per minute. […] Activity was determined according to the following equation: specific activity=[(ΔA550/min)(dilution factor)(total reaction volume)]/[(36.88)(0.5)(path length)(sample volume)(C)], where the total reaction volume is 1 ml, the millimolar extinction coefficient of quinoneimine dye is 36.88, the factor of 0.5 was determined based on the fact that 1 mol of hydrogen peroxide produces 0.5 mol of quinoneimine dye, the light path length is 1 cm, the sample volume is 0.1 ml, and C is the concentration of undiluted enzyme in mg/ml. […]
Pyruvate oxidase activity was measured as previously described (16). […]

[3] = system: Lactobacillus delbrueckii STYM1 pyruvate oxidase variant Δ32 (C-terminal truncation lacking the last 32 amino acids); test: Phospholipid activation assay of L. delbrueckii Pox Δ32; format: biochemical; conditions: various PE concentrations
Description: The C-terminus of E. coli Pox is important for lipid activation of the enzyme (13). To test if the C-terminus was important in the L. delbrueckii Pox, a C-terminal truncation was generated that lacked the last 32 amino acids. The enzyme was purified and tested for its ability to be activated by PE (FIG. 18A). […] This is consistent with the E. coli pox truncation having greater activity partially mimicking lipid activation (20). Furthermore, the Δ32 enzyme was only weakly activated by PE to approximately 2-fold greater than the enzyme without PE compared to an approximately 6-fold activation with the full-length enzyme (FIG. 15B and FIG. 18C).
The PCR product was ligated into the pFLAG-CTC vector (Sigma, St. Louis, MO) using the NdeI and XhoI restriction sites. […] The construct was transformed into LOBSTR E. coli, in which the L. delbrueckii Δ32 Pox was expressed as a C-terminal His6-Pox. […] Protein purity was assessed by SDS-PAGE and Coomassie staining.
Pyruvate oxidase activity was measured as previously described (16). […] The formation of a quinoneimine dye at 25° C. was measured by an increase in absorbance at 550 nm and the specific activity was calculated as described. […]
as §2

[4] = system: Lactobacillus delbrueckii STYM1 strain pyruvate oxidase (L. delbrueckii Pox, LDBND_1487), wild type; test: PE co-sedimentation; format: binding; conditions: 1 mM PE, 50 mM pyruvate, 300 μM TPP, 15 μM FAD, 30 minutes at room temperature
Description: as §1
PE was prepared as described above for activation experiments. 3 μg of L. delbrueckii Pox was incubated with 50 mM pyruvate, 300 μM TPP, and 15 μM FAD with either 1 mM PE or no PE for 30 minutes at room temperature. The PE fraction was precipitated by centrifugation at 16,000×g for 20 minutes at 4° C. The supernatant was aspirated as the soluble fraction and the PE pellet was resuspened in an equal amount of buffer. The fractions were visualized by Coomassie staining after SDS-PAGE.

With `CCCCCCCC/C=C\CCCCCCCC(=O)O[C@H](COC(=O)CCCCCCCCCCCCCCC)COP(=O)([O-])OCC[N+](C)(C)C` [PC, Phosphotidylcholine (16:0-18:1)] the “catalytic activation by phospholipid (in words)” value (“catalytic activation” for short) [1] was “not PC or PG”.
`CCCCCCCC/C=C\CCCCCCCC(=O)O[C@H](COC(=O)CCCCCCCCCCCCCCC)COP(=O)(O)OCC(O)CO` (some centres unmarked) [PG, Phosphotidylglycerol (16:0-18:1)] was tested, and the “catalytic activation” value [1] was “not PC or PG”.
phosphate was tested, and the Km ([2]; with 7.2 mM PE, 170 nM enzyme, read-out: km for phosphate (with PE)) was 1.25 mM and the Km ([2]; without PE, 1.76 μM enzyme, pyruvate 50 mM, pH 5.6, read-out: km for phosphate) was 8 mM.
In the case of `CCCCCCCC/C=C\CCCCCCCC(=O)O[C@H](COC(=O)CCCCCCCCCCCCCCC)COP(=O)(O)OCCN` [PE, Phosphotidylethanolamine (16:0-18:1)], the “increase in kcat relative to the enzyme in the absence of PE” value ([2]; 7.2 mM PE vs no PE) is reported as “approximately 18 fold”, the “catalytic activation” value [1] is reported as “catalytically activated specifically by PE” and the “fold activity relative to the enzyme without PE” value [3] is reported as “approximately 2 fold”. For the same compound, the “co-precipitation with PE” value [4] was “did not co-precipitate with PE”.
